In patent US8163793B2, “Proline derivatives” (Hoffman-La Roche Inc., priority 2009, dated 2012) one finds IC50 data, which are given here for 16 compounds.

One assay concerns the target Cathepsin S (UniProt P25774). The assay is described as follows: Cathepsin enzyme inhibition assay (fluorogenic peptide substrate Z-Val-Val-Arg-AMC), Cathepsin S. Format: biochemical, human and mouse. The conditions noted are these: enzyme 1 nM, substrate 20 μM, pH 6.5; read-out: CatS IC50. The procedure, abridged: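 Compounds were combined with 1 nM human or mouse enzyme, and substrate then started the reaction. The buffer was potassium phosphate (100 mM, pH 6.5) containing EDTA-Na 5 mM, Triton X-100 0.001% and […] 5 mM.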

A further assay has as its target Cat L (UniProt P07711). The assay is described as follows: Cathepsin enzyme inhibition assay (fluorogenic peptide substrate Z-Val-Val-Arg-AMC), Cathepsin L. Format: biochemical, human and mouse. To be noted: enzyme 1 nM, substrate 20 μM, pH 6.5; read-out: CatL IC50. The procedure, abridged: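 Fluorogenic cleavage of Z-Val-Val-Arg-AMC (20 μM) by 1 nM Cat L was monitored at ex 360/em 465 nm for 20 min, the linear phase. The buffer was 100 mM potassium phosphate pH 6.5 with 5 mM EDTA and DTT. IC50 values were derived by standard methods, in μM.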

The term IC50 denotes the concentration that inhibits the measured activity by half.

Each structure is given as a SMILES string.

Consider `N#CC1(NC(=O)[C@@H]2C[C@@H](S(=O)(=O)c3ccccc3Cl)CN2C(=O)CC(F)(F)F)CC1` [Example 219, (2S,4R)-4-(2-Chloro-benzenesulfonyl)-1-(3,3,3-trifluoro-propionyl)-pyrrolidine-2-carboxylic Acid (1-cyano-cyclopropyl)-amide], for which the IC50 on Cathepsin S stood at 0.3 nM; on Cat L, 12600 nM.

In the case of `N#CC1(NC(=O)[C@@H]2C[C@@H](S(=O)(=O)c3ccc(OCC(F)(F)F)cc3Cl)CN2C(=O)C2(c3ccc(Br)cc3)OCCO2)CC1` [Example 346, (2S,4R)-1-[2-(4-Bromo-phenyl)-[1,3]dioxolane-2-carbonyl]-4-[2-chloro-4-(2,2,2-trifluoro-ethoxy)-benzenesulfonyl]-pyrrolidine-2-carboxylic acid (1-cyano-cyclopropyl)-amide], the IC50 on Cathepsin S came to 0.101 nM; on Cat L it was 28.5 nM.

On to `CC(=O)Nc1cccc(-n2nc(C)cc2N2C[C@H](S(=O)(=O)c3ccccc3C(F)(F)F)C[C@H]2C(=O)NC2(C#N)CC2)c1` [Example 356, (2S,4R)-1-[2-(3-Acetylamino-phenyl)-5-methyl-2H-pyrazol-3-yl]-4-(2-trifluoromethyl-benzenesulfonyl)-pyrrolidine-2-carboxylic acid (1-cyano-cyclopropyl)-amide], for which the IC50 at Cathepsin S was found to be 0.06 nM; at Cat L it was 31800 nM.

As for `CC(=O)N1C[C@H](S(=O)(=O)c2ccc(N3CCCCC3)cc2Cl)C[C@H]1C(=O)NC1(C#N)CC1` [Example 133, (2S,4R)-1-Acetyl-4-(2-chloro-4-piperidin-1-yl-benzenesulfonyl)-pyrrolidine-2-carboxylic acid (1-cyano-cyclopropyl)-amide formiate], the IC50 was determined as 0.9 nM on Cathepsin S and 23400 nM at Cat L.

Consider `N#CC1(NC(=O)[C@@H]2C[C@@H](S(=O)(=O)c3ccccc3C(F)(F)F)CN2C(=O)C2CCC(C(F)(F)F)CC2)CC1` (stereo partly drawn) [Example 105, (2S,4R)-4-(2-Trifluoromethyl-benzenesulfonyl)-1-(4-trifluoromethyl-cyclohexanecarbonyl)-pyrrolidine-2-carboxylic acid (1-cyano-cyclopropyl)-amide], for which the IC50 at Cathepsin S is 0.3 nM; at Cat L, no less than 25000 nM.

`N#CC1(NC(=O)[C@@H]2C[C@@H](S(=O)(=O)c3ccc(-n4cccn4)cc3Cl)CN2C(=O)C2(c3ccc(Cl)nc3)CC2)CC1` [Example 380, (2S,4R)-4-(2-Chloro-4-pyrazol-1-yl-benzenesulfonyl)-1-[1-(6-chloro-pyridin-3-yl)-cyclopropanecarbonyl]-pyrrolidine-2-carboxylic acid (1-cyano-cyclopropyl)-amide]: the IC50 on Cathepsin S amounted to 0.05 nM; at Cat L, 130 nM.

Take `N#CC1(NC(=O)C2CC(S(=O)(=O)c3ccccc3C(F)(F)F)CN2c2ccccc2-c2ccccc2)CC1` (centres unmarked) [Example 343, 1-Biphenyl-2-yl-4-(2-trifluoromethyl-benzenesulfonyl)-pyrrolidine-2-carboxylic acid (1-cyano-cyclopropyl)-amide]: the IC50 at Cathepsin S is 99.3 nM; on Cat L it was no less than 25000 nM.

Consider `N#CC1(NC(=O)[C@@H]2C[C@@H](S(=O)(=O)c3ccc(OCC(F)(F)F)cc3Cl)CN2C(=O)C2(c3cccc4ccccc34)OCCO2)CC1` [Example 390, (2S,4R)-4-[2-Chloro-4-(2,2,2-trifluoro-ethoxy)-benzenesulfonyl]-1-(2-naphthalen-1-yl-[1,3]dioxolane-2-carbonyl)-pyrrolidine-2-carboxylic acid (1-cyano-cyclopropyl)-amide], for which the IC50 on Cathepsin S was determined as 0.83 nM; on Cat L it was 120 nM.

`N#CC1(NC(=O)[C@@H]2C[C@@H](S(=O)(=O)c3ccccc3Cl)CN2C(=O)C2(Oc3ccc(Cl)cc3)CC2)CC1` [Example 473, (2S,4R)-4-(2-Chloro-benzenesulfonyl)-1-[1-(4-chloro-phenoxy)-cyclopropanecarbonyl]-pyrrolidine-2-carboxylic acid (1-cyano-cyclopropyl)-amide]: the IC50 amounted to 70 nM at Cathepsin S and 4410 nM at Cat L.

Turning to `CC(C)(C)OC(=O)N1C[C@H](S(=O)(=O)c2ccc(N3CCC(F)(F)CC3)cc2Cl)C[C@H]1C(=O)NC1(C#N)CC1` [Example 152, (2S,4R)-4-[2-Chloro-4-(4,4-difluoro-piperidin-1-yl)-benzenesulfonyl]-2-(1-cyano-cyclopropylcarbamoyl)-pyrrolidine-1-carboxylic acid tert.-butyl ester], the IC50 at Cathepsin S is 2.2 nM; on Cat L, 30800 nM.

Regarding `N#CC1(NC(=O)[C@@H]2C[C@@H](S(=O)(=O)c3ccccc3Cl)CN2CCc2ccccc2)CC1` [Example 87, (2S,4R)-4-(2-Chloro-benzenesulfonyl)-1-phenethyl-pyrrolidine-2-carboxylic acid (1-cyano-cyclopropyl)-amide], the IC50 on Cathepsin S amounted to 37.5 nM; on Cat L, 4720 nM.

Turning to `N#CC1(NC(=O)[C@@H]2C[C@@H](S(=O)(=O)c3ccc(N4CCCCC4)cc3Cl)CN2C=O)CC1` [Example 146, (2S,4R)-4-(2-Chloro-4-piperidin-1-yl-benzenesulfonyl)-1-formyl-pyrrolidine-2-carboxylic acid (1-cyano-cyclopropyl)-amide formiate], the IC50 is 6.4 nM on Cathepsin S and 25500 nM on Cat L.

As for `Cc1cc(N2C[C@H](S(=O)(=O)c3ccccc3Cl)C[C@H]2C(=O)NC2(C#N)CC2)n(CCc2ccccc2)n1` [Example 359, (2S,4R)-4-(2-Chloro-benzenesulfonyl)-1-(5-methyl-2-phenethyl-2H-pyrazol-3-yl)-pyrrolidine-2-carboxylic acid (1-cyano-cyclopropyl)-amide], the IC50 at Cathepsin S turned out to be 0.67 nM; at Cat L, 1050 nM.

For `Cc1cc(N2C[C@H](S(=O)(=O)c3ccc(OCC(F)(F)F)cc3C(F)(F)F)C[C@H]2C(=O)NC2(C#N)CC2)n(C2CCC2)n1` [Example 391, (2S,4R)-1-(2-Cyclobutyl-5-methyl-2H-pyrazol-3-yl)-4-[4-(2,2,2-trifluoro-ethoxy)-2-trifluoromethyl-benzenesulfonyl]-pyrrolidine-2-carboxylic acid (1-cyano-cyclopropyl)-amide], the IC50 at Cathepsin S amounted to 0.22 nM; on Cat L, 16700 nM.

For `N#CC1(NC(=O)[C@@H]2C[C@@H](S(=O)(=O)c3ccccc3Cl)CN2C(=O)C2(c3ccc(Cl)c(F)c3)CC2)CC1` [Example 446, (2S,4R)-4-(2-Chloro-benzenesulfonyl)-1-[1-(4-chloro-3-fluoro-phenyl)-cyclopropanecarbonyl]-pyrrolidine-2-carboxylic acid (1-cyano-cyclopropyl)-amide], the IC50 on Cathepsin S came out at 0.275 nM; on Cat L it was 21.5 nM.

In the case of `Cc1ccc(C2(C(=O)N3C[C@H](S(=O)(=O)c4ccc(OCC(F)(F)F)cc4Cl)C[C@H]3C(=O)NC3(C#N)CC3)CC2)cc1` [Example 304, (2S,4R)-4-[2-Chloro-4-(2,2,2-trifluoro-ethoxy)-benzenesulfonyl]-1-(1-p-tolyl-cyclopropanecarbonyl)-pyrrolidine-2-carboxylic acid (1-cyano-cyclopropyl)-amide], the IC50 was 0.445 nM on Cathepsin S and 805 nM on Cat L.
